Laboratory results published in US10167295B2 (priority 2013, dated 2019).
“Also recorded” adds a separate entry of the source. Structures can show the parent of a compound that is named as a salt. Where two headings read alike, the source gives them in different places.

Experiments:
[1] = system: patients with post-operative pain; conditions: cited from earlier work; for analgesia in earlier clinical studies (in words): patients with post-operative pain, literature of the applicants
[2] = target: T1, MOR (Homo sapiens, UniProt P35372); assay: biochemical; type: binding
[3] = target: T2, DOR (Homo sapiens, UniProt P41143); assay: biochemical; type: binding
[4] = target: KOR (Homo sapiens, UniProt P41145); assay: biochemical; type: binding
[5] = target: T3, NOP (Homo sapiens, UniProt P41146); type: cell-based
[6] = target: T2, DOR; assay: biochemical; type: binding; remark: listed apart in the source
[7] = target: T1, MOR; assay: biochemical; type: binding; remark: listed apart in the source
[8] = system: patients with post-operative pain; assay: Clinical studies of analgesia in patients with post-operative pain; type: in vivo, human; conditions: for sex difference in analgesia: women vs men, post-operative pain (FIG. 8, 9)
[9] = target: T4, σ2 receptor (Homo sapiens, UniProt Q5BJF2); type: binding; conditions: for inhibition at 10 µM: read-out: Inhibition (%) Sigma2 (σ2)
T4 construct: MDS Pharma Services (contract laboratory that ran the assay)

[10] = target: T3, NOP; type: binding; set-up: MDS Pharma Services (contract laboratory that ran the assay); conditions: for binding to the NOP receptor (in words): 10 μM; for inhibition at 10 µM: read-out: Inhibition (%) Nociceptin/orphanin F/Q (NOP)

T4 sequence (Q5BJF2 whole entry, species assumed): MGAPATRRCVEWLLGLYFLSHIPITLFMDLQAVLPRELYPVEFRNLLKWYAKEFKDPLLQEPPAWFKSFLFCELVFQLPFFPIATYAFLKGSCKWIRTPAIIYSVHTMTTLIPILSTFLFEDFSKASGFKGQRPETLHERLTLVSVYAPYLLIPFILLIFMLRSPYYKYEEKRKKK
T3 sequence (P41146 whole entry): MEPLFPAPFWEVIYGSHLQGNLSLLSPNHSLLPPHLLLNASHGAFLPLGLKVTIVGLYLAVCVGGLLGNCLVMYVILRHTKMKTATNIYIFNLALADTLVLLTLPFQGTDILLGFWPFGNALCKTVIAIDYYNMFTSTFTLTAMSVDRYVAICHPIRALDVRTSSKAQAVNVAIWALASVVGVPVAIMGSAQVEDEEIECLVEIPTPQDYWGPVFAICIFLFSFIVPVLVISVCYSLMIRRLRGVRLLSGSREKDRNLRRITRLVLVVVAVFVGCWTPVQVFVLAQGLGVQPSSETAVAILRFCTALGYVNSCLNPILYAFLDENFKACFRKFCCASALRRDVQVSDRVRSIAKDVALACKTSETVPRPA
T2 sequence (P41143 whole entry): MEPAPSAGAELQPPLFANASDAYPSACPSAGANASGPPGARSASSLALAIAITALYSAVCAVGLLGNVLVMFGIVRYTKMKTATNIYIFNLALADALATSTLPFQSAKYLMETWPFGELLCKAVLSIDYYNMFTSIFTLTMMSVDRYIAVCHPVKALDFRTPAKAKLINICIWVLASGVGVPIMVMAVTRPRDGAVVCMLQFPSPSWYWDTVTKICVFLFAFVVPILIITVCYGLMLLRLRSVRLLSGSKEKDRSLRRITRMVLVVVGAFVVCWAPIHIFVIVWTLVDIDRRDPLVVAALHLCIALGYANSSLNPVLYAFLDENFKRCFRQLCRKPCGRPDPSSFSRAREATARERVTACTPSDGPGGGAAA
T1 sequence (P35372 whole entry): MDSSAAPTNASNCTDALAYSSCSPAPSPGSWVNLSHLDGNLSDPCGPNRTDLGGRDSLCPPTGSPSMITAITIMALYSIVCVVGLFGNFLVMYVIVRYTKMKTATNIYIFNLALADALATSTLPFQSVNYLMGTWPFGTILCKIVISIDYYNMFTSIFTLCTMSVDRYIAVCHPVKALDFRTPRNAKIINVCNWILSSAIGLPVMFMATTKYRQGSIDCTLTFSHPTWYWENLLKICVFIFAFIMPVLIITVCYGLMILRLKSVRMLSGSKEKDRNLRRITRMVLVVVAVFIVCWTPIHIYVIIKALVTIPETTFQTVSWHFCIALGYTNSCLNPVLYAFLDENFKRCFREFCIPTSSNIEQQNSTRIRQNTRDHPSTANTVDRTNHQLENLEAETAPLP
Sequence of KOR (P41145 whole entry): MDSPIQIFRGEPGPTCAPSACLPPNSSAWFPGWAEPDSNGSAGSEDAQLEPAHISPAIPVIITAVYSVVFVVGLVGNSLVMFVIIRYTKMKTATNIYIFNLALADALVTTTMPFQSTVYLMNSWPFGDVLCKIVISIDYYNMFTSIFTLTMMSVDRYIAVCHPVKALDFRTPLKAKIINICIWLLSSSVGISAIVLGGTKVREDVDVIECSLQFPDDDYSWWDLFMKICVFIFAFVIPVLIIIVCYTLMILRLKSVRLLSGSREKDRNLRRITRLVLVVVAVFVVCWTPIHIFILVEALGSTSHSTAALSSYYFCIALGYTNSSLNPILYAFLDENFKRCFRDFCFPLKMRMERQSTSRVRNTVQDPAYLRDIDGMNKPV

NCC(CC(=O)O)c1ccc(Cl)cc1 (centres unmarked) [baclofen]
effect on the analgesic effect of pentazocine ([1]; oral, from three days prior to surgery, pentazocine 30 mg i.v. (Gordon 1995)): not significantly different from that of placebo

CN(C(=O)/C=C/c1ccoc1)[C@@H]1CCC2(O)C3Cc4ccc(O)c5c4[C@@]2(CCN3CC2CC2)[C@H]1O5 (some centres unmarked) [compound 27035, TRK-820 HCl]
MOR [2]: 94
inhibition at 10 µM ([2]; read-out: MOR mean % inhibition): 93.8%
DOR [3]: 95
inhibition at 10 µM ([3]; read-out: DOR mean % inhibition): 95.3%
KOR [4]: 91
inhibition at 10 µM ([4]; read-out: KOR mean % inhibition): 90.5%
NOP Tango Agonist [5]: 3.5
Ki [6]: 42 nM
Ki [7]: 1.1 nM

Oc1ccc2c(c1)[C@@]13CCCC[C@@]1(O)[C@@H](C2)N(CC1CCC1)CC3 [Butorphanol]
sex difference in analgesia [8]: significantly great analgesia in women than in men; also recorded: significantly greater analgesia in females than in males

O=C(CCCN1CCC(O)(c2ccc(Cl)cc2)CC1)c1ccc(F)cc1 [haloperidol]
analgesia in earlier clinical studies (in words) [1]: enhanced the analgesic effect of nalbuphine

CN(C)CCCN1c2ccccc2Sc2ccc(Cl)cc21 [chlorpromazine]
analgesia in earlier clinical studies (in words) [1]: enhanced the analgesic effect of nalbuphine

C=CCN1CC[C@]23c4c5ccc(O)c4O[C@H]2C(=O)CC[C@@]3(O)[C@H]1C5 [Naloxone, naloxone hydrochloride]
analgesia in earlier clinical studies (in words) [1]: blocks anti-analgesia and produces enhanced and prolonged analgesia
effect on nalbuphine anti-analgesia in males ([8]; naloxone 0.4 mg in combination with nalbuphine, men (FIG. 10 left)): abolished the anti-analgesic effect of nalbuphine in males resulting in significant analgesia
effect on nalbuphine analgesia in females ([8]; naloxone 0.4 mg in combination with nalbuphine, women (FIG. 10 right)): enhanced nalbuphine analgesia in females
binding to the σ2 receptor (in words) ([9]; 10 μM): does not bind to the σ2 receptor
inhibition at 10 µM [9]: -2%

CC(C)=CCN1CCC2(C)c3cc(O)ccc3CC1C2C.CC(O)C(=O)O (centres unmarked) [Pentazocine, Pentazocine lactate]
sex difference in analgesia [8]: significantly great analgesia in women than in men; also recorded: significant difference in analgesia experience by females and males
inhibition at 10 µM [9]: 81%
binding to the NOP receptor (in words) [10]: binds to NOP receptors
inhibition at 10 µM [10]: 24%

Oc1ccc2c3c1O[C@H]1[C@@H](O)CC[C@@]4(O)[C@@H](C2)N(CC2CCC2)CC[C@]314 [Nalbuphine, Nalbuphine hydrochloride]
time by which men reported increasing pain (anti-analgesia) ([1]; men, placebo controlled study (Gear 1999)): ~90 min
analgesia in earlier clinical studies (in words) [1]: worse pain than those receiving placebo
sex difference in analgesia ([8]; hydrochloride): significantly greater analgesia in females than in males
sex difference in analgesia ([8]; listed as nalbuphine, hydrochloride): significantly great analgesia in women than in men
inhibition at 10 µM [9]: 15%
binding to the NOP receptor (in words) ([10]; hydrochloride): binds to NOP receptors
inhibition at 10 µM [10]: 12%
